The record followed here is patent US6541515B2, “HIV integrase inhibitors” (Merck & Co., Inc., priority 2000, dated 2003).

For the assay, the target named is recombinant integrase (HIV integrase) (Human immunodeficiency virus type 1 group M subtype B, UniProt P04585). Description: HIV integrase assay: strand transfer catalyzed by recombinant integrase. The format is biochemical. Particulars: strand transfer activity. The procedure:
HIV Integrase Assay: Strand Transfer Catalyzed by Recombinant Integrase and Preintegration Complexes
Assays for the strand transfer activity of integrase can be conducted according to Wolfe et al., J. Virol. 1996, 70: 1424 and Farnet and Bushman, Cell 1997, 88: 483 for recombinant integrase and preintegration complexes, respectively, hereby incorporated by reference. Compound A was tested in the recombinant integrase assay and found to have an IC50 of about 20 micromolar.

Take `CCCCC(C)C1=C(O)C(=O)C2CC(C)CC(C(=O)O)C2C1(C)C(=O)CCO` (stereo not shown) [Compound A]: the IC50 was ~20 µM.
